Type in all cases: in vivo
In experiment [1] the test system is Setaria faberi (SETFA). The experiment in a line: Example B pre-emergence herbicidal activity, glasshouse pot test. The conditions noted are these: 312 h, evaluated after 13 days, read-out: Pre-emergence activity SETFA (100=total damage to plant; 0=no damage to plant); for pest or weed control at 1000 g/ha: rate 1000 g/ha. An outline of the steps:
(§1)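 Herbicidal effect was judged 13 days after treatment as percent-style damage (100 = total kill). Seeds in standard soil had grown 1 day (pre) or 8 days (post) in a 24/16 °C, 14 h light, 65% humidity glasshouse before spraying with compound in acetone/water (50:50) containing 0.5% Tween 20.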

In experiment [2] the test system is Amaranthus retroflexus (AMARE). The description is as above. The following applies: 312 h, evaluated after 13 days, read-out: Pre-emergence activity AMARE (100=total damage to plant; 0=no damage to plant); for pest or weed control at 1000 g/ha: rate 1000 g/ha. An outline of the steps:
as §1

Experiment [3] has as its system Echinochloa crus-galli (ECHCG). The description is as above. The following applies: 312 h, evaluated after 13 days, read-out: Pre-emergence activity ECHCG (100=total damage to plant; 0=no damage to plant); for pest or weed control at 1000 g/ha: rate 1000 g/ha. An outline of the steps: as §1
Experiment [4] deals with Alopecurus myosuroides (ALOMY). The experiment is described as above. The following applies: 312 h, evaluated after 13 days, read-out: Pre-emergence activity ALOMY (100=total damage to plant; 0=no damage to plant); for pest or weed control at 1000 g/ha: rate 1000 g/ha. The method, boiled down:
as §1

Experiment [5] deals with Solanum nigrum (SOLNI). The experiment is described as above. The following applies: 312 h, evaluated after 13 days, read-out: Pre-emergence activity SOLNI (100=total damage to plant; 0=no damage to plant); for pest or weed control at 1000 g/ha: rate 1000 g/ha. The method, boiled down:
as §1

Experiment [6] relates to Avena fatua (AVEFA). The description is as above. The conditions noted are these: 312 h, evaluated after 13 days, read-out: Pre-emergence activity AVEFA (100=total damage to plant; 0=no damage to plant); for pest or weed control at 1000 g/ha: rate 1000 g/ha. An outline of the steps:
as §1

The test system of experiment [7] is Setaria faberi (SETFA). Briefly: Example B post-emergence herbicidal activity, glasshouse pot test. The conditions noted are these: 312 h, evaluated after 13 days, read-out: Post-emergence activity SETFA (100=total damage to plant; 0=no damage to plant); for pest or weed control at 1000 g/ha: rate 1000 g/ha. An outline of the steps: as §1
Experiment [8] concerns Amaranthus retroflexus (AMARE). The description is as above. The conditions noted are these: 312 h, evaluated after 13 days, read-out: Post-emergence activity AMARE (100=total damage to plant; 0=no damage to plant); for pest or weed control at 1000 g/ha: rate 1000 g/ha. The method, boiled down:
as §1

For experiment [9], the system named is Echinochloa crus-galli (ECHCG). Described as above. The conditions noted are these: 312 h, evaluated after 13 days, read-out: Post-emergence activity ECHCG (100=total damage to plant; 0=no damage to plant); for pest or weed control at 1000 g/ha: rate 1000 g/ha. The method, boiled down: as §1
In experiment [10] the test system is Alopecurus myosuroides (ALOMY). The description is as above. The conditions noted are these: 312 h, evaluated after 13 days, read-out: Post-emergence activity ALOMY (100=total damage to plant; 0=no damage to plant); for pest or weed control at 1000 g/ha: rate 1000 g/ha. The method, boiled down: as §1
Experiment [11] has as its system Solanum nigrum (SOLNI). The description is as above. The following applies: 312 h, evaluated after 13 days, read-out: Post-emergence activity SOLNI (100=total damage to plant; 0=no damage to plant); for pest or weed control at 1000 g/ha: rate 1000 g/ha. The method, boiled down: as §1
The test system of experiment [12] is Avena fatua (AVEFA). Described as above. The conditions noted are these: 312 h, evaluated after 13 days, read-out: Post-emergence activity AVEFA (100=total damage to plant; 0=no damage to plant); for pest or weed control at 1000 g/ha: rate 1000 g/ha. The method, boiled down: as §1

This note sets out measurements from patent US8680012B2, “4-phenyl-pyrane-3,5-diones,4-phenyl-thiopyrane-3,6-diones and cyclohexanetriones as novel herbicides” (Syngenta Crop Protection LLC, priority 2006, dated 2014).

For `CCOC(=O)OC1=C(c2cc(-c3ccc(Cl)cc3)ccc2CC)C(=O)C(C)(C)OC1(C)C` [Compound D-13], the pest or weed control at 1000 g/ha in the experiment on Setaria faberi (SETFA) [1] turned out to be 90%; in experiment [2], 0%; in [3] it was 90%; in [4], 50%; in the experiment with Solanum nigrum (SOLNI) [5], 0%; with Avena fatua (AVEFA) [6], 20%. The pest or weed control at 1000 g/ha worked out at 100% in the experiment with Setaria faberi (SETFA) [7]; 0% in [8]; 100% in experiment [9]; 60% in experiment [10]; 0% in the experiment on Solanum nigrum (SOLNI) [11]; 0% with Avena fatua (AVEFA) [12].

As for `CCc1ccc(-c2ccc(Cl)cc2)cc1C1=C(O)C(C)(C)OC(C)C1=O` (single isomer, unassigned) [Compound A-26], the pest or weed control at 1000 g/ha in the experiment on Setaria faberi (SETFA) [1] amounted to 100%; in [2], 0%; in experiment [3] it was 100%; in experiment [4], 80%; in the experiment on Solanum nigrum (SOLNI) [5] it was 0%; in the experiment with Avena fatua (AVEFA) [6], 80%. The pest or weed control at 1000 g/ha with Setaria faberi (SETFA) [7] turned out to be 100%; in [8] it was 100%; in experiment [9], 100%; in experiment [10], 100%; in the experiment on Solanum nigrum (SOLNI) [11], 50%; with Avena fatua (AVEFA) [12] it was 100%.

Consider `CCc1ccc(-c2ccc(Cl)cc2)cc1C1=C(OC(=O)OCC(C)C)C(C)(C)OC(C)(C)C1=O` [Compound D-14], for which the pest or weed control at 1000 g/ha is 90% in the experiment with Setaria faberi (SETFA) [1]; 0% in experiment [2]; 60% in experiment [3]; 50% in experiment [4]; 0% in the experiment with Solanum nigrum (SOLNI) [5]; 20% in the experiment on Avena fatua (AVEFA) [6]. Also, the pest or weed control at 1000 g/ha in the experiment with Setaria faberi (SETFA) [7] came out at 100%; in experiment [8], 0%; in experiment [9] it was 100%; in experiment [10] it was 20%; with Solanum nigrum (SOLNI) [11] it was 0%; with Avena fatua (AVEFA) [12], 10%.

As for `CCc1ccc(-c2ccc(Cl)cc2)cc1C1=C(OC(=O)COC)C(C)(C)OC(C)(C)C1=O` [Compound D-12], the pest or weed control at 1000 g/ha turned out to be 100% in the experiment with Setaria faberi (SETFA) [1]; 0% in [2]; 100% in experiment [3]; 90% in [4]; 0% with Solanum nigrum (SOLNI) [5]; 60% in the experiment on Avena fatua (AVEFA) [6]. The pest or weed control at 1000 g/ha in the experiment with Setaria faberi (SETFA) [7] was determined as 100%; in experiment [8] it was 0%; in [9], 100%; in [10], 90%; in the experiment with Solanum nigrum (SOLNI) [11] it was 0%; in the experiment with Avena fatua (AVEFA) [12], 90%.

Take `CCc1ccc(-c2ccc(Cl)cc2)cc1C1=C(OC(C)=O)C(C)(C)OC(C)(C)C1=O` [Compound D-7]: the pest or weed control at 1000 g/ha with Setaria faberi (SETFA) [1] was determined as 100%; in [2], 0%; in [3], 90%; in [4], 60%; in the experiment on Solanum nigrum (SOLNI) [5], 0%; in the experiment on Avena fatua (AVEFA) [6] it was 30%. Also, the pest or weed control at 1000 g/ha was 100% with Setaria faberi (SETFA) [7]; 0% in experiment [8]; 100% in [9]; 90% in experiment [10]; 0% in the experiment on Solanum nigrum (SOLNI) [11]; 70% in the experiment on Avena fatua (AVEFA) [12].

On to `CCc1ccc(-c2ccc(Cl)cc2)cc1C1=C(OC(=O)C(C)C)C(C)(C)OC(C)(C)C1=O` [Compound D-9], for which the pest or weed control at 1000 g/ha in the experiment on Setaria faberi (SETFA) [1] is 90%; in experiment [2], 0%; in experiment [3], 70%; in experiment [4], 20%; in the experiment with Solanum nigrum (SOLNI) [5] it was 0%; in the experiment on Avena fatua (AVEFA) [6], 0%. The pest or weed control at 1000 g/ha in the experiment with Setaria faberi (SETFA) [7] was 90%; in experiment [8], 0%; in [9], 100%; in experiment [10], 30%; in the experiment with Solanum nigrum (SOLNI) [11], 0%; in the experiment with Avena fatua (AVEFA) [12], 0%.

As to `CCc1ccc(-c2ccc(Cl)cc2OC)cc1C1=C(O)C(C)(C)C(=O)C(C)(C)C1=O` [Compound B-25], the pest or weed control at 250 g/ha (in the experiment on Setaria faberi (SETFA) [1] (rate 250 g/ha); in experiment [2] (rate 250 g/ha); in [3] (rate 250 g/ha); in experiment [4] (rate 250 g/ha); with Solanum nigrum (SOLNI) [5] (rate 250 g/ha); in the experiment on Avena fatua (AVEFA) [6] (rate 250 g/ha)) was 0% throughout. Further, the pest or weed control at 250 g/ha in the experiment with Setaria faberi (SETFA) [7] (rate 250 g/ha) came to 20%; in experiment [8] (rate 250 g/ha), 0%; in [9] (rate 250 g/ha), 70%; in [10] (rate 250 g/ha), 20%; in the experiment with Solanum nigrum (SOLNI) [11] (rate 250 g/ha), 0%; in the experiment with Avena fatua (AVEFA) [12] (rate 250 g/ha) it was 0%.

Turning to `CCC(=O)OC1=C(c2cc(-c3ccc(Cl)cc3)ccc2CC)C(=O)C(C)(C)OC1(C)C` [Compound D-8], the pest or weed control at 1000 g/ha with Setaria faberi (SETFA) [1] came to 90%; in [2], 0%; in experiment [3], 90%; in experiment [4], 40%; with Solanum nigrum (SOLNI) [5], 0%; in the experiment with Avena fatua (AVEFA) [6], 0%. The pest or weed control at 1000 g/ha with Setaria faberi (SETFA) [7] turned out to be 100%; in experiment [8] it was 0%; in [9], 100%; in experiment [10] it was 60%; in the experiment with Solanum nigrum (SOLNI) [11] it was 0%; in the experiment with Avena fatua (AVEFA) [12], 10%.

Consider `Cc1ccc(-c2ccc(Cl)nc2C)cc1C1=C(O)C(C)(C)C(=O)C(C)(C)C1=O` [Compound B-6], for which the pest or weed control at 1000 g/ha in the experiment on Setaria faberi (SETFA) [1] is 0%; in experiment [2], 100%; in experiment [3], 0%; in experiment [4], 0%; in the experiment with Solanum nigrum (SOLNI) [5], 90%; with Avena fatua (AVEFA) [6], 0%. Further, the pest or weed control at 1000 g/ha in the experiment on Setaria faberi (SETFA) [7] came to 30%; in [8], 0%; in [9] it was 50%; in experiment [10], 20%; in the experiment on Solanum nigrum (SOLNI) [11], 0%; in the experiment with Avena fatua (AVEFA) [12], 0%.
